Each structure is given as a SMILES string. “Also recorded” adds a separate entry of the source.

A short description of data set [1]: Amphetamine antagonism (stereotypy in rats). Format: in vivo. As to conditions: Rattus norvegicus.
The nature of data set [2]: Methylphenidate antagonism (mice biting corrugated paper). It is filed as in vivo. The note with it: Mus musculus, ip. The procedure:
Methylphenidate antagonism (ED50 mg/kg i.p.)
Perspex observation cages without bottom and lid, consisting of 5 sections each measuring 12×25×30 cm. White corrugated paper. Mice, male, 18-25 g.
The test substance is given i.p. in the doses 0, 1/8, 1/32 and 1/128 of the determined "i.p. LD50". 3×2 mice are used for each dose level. Two or 24 hours after injection of test substance, methylphenidate, 60 mg/kg, is injected s.c. After administration of methylphenidate the mice are placed in the observation cages, 2 in each cage, where they remain for exactly 1 hour. The cages are placed on corrugated paper, the corrugations facing upwards. It is examined whether the mice have been biting the corrugated paper or not. […] If one or more of the control pairs have not been biting, the test has to be repeated on a new set of mice.
The result is stated in fractions: 0/3, 1/3, 2/3 and 3/3 where 0, 1, 2 and 3 are the number of pairs which have not been biting on receipt of the dose in question.
The results are calculated as the dose (ED50), which causes antagonism in 50% of the test animals.

The nature of data set [3]: Neuroleptic effect: duration and strength (remarks of Table 2). It is filed as in vivo. As to conditions: in words; for Duration (remarks, words): duration of neuroleptic effect; for Strength of effect (remarks, words): strength of neuroleptic effect. An excerpt: The pharmacological testing of the novel xanthones and thioxanthenes of Formula I consisted of standard and reliable tests. […]

The nature of data set [4]: Catalepsy wire mesh, rat, max. Format: in vivo, rats. As to conditions: for ED50: Rattus norvegicus, sc, rats, s.c., strongest effect within first 6 hours, read-out: Catalepsy wire mesh, rat, max. ED50; for Cataleptic activity: in words. As for the experimental part: Catalepsy wire mesh, rat, max. (ED50 mg/kg s.c.)
A vertical wire netting (50 cm×49 cm). The meshes (openings) of the netting are square (1 cm×1 cm). The wire diameter is 2 mm. Stop watch. Rats, male, 180-200 g.
The animals are labeled and used in groups of five. The test substance is injected subcutaneously (s.c.) (5 ml/kg) at 4 dose levels selected from the fixed dose scale.
The animals are placed in the middle of the vertical wire netting 60, 120, 180, 240, 300 and 360 minutes after injection of the test compound. The animals are considered cataleptic when they remain immobile during a period of 15 seconds. This cataleptic reaction is designated +. If the rats are "atonic" and passively slide down the wire mesh they are considered not cataleptic. If the animals climb up and down the wire mesh they are nor cataleptic. In both situations the designation - is used.

[5] abbreviates: ip, 24 h, read-out: Amphetamine antagonism ED50.
Setting [6] is: mice, i.p., methylphenidate 60 mg/kg s.c. 2 h after test substance, read-out: Methylphenidate antagonism ED50, 2 h.
The mark [7] stands for this setting: mice, i.p., methylphenidate 60 mg/kg s.c. 24 h after test substance, read-out: Methylphenidate antagonism ED50, 24 h.
The mark [8] stands for this setting: 2 h, read-out: Methylphenidate antagonism ED50, 2 h.
The mark [9] stands for this setting: 24 h, read-out: Methylphenidate antagonism ED50, 24 h.

As for `O=C1OCCN1CCN1CCC(=C2c3ccc(F)cc3Sc3ccc(Cl)cc32)CC1` [Lu 14-117, 1-(2-(2-Oxazolidinon-3-yl)ethyl)-4-(2-chloro-6-fluoro-9-thioxanthenylidene)piperidine], the ED50 in data set [1] (setting [5]) was determined as 0.34 mg/kg; in data set [2] (setting [6]), 0.21 mg/kg; in data set [2] (setting [7]), 29 mg/kg; in data set [4] it was 1 mg/kg. Further, in data set [3], the “Duration (remarks, words)” value is “short acting”. Besides, the “Strength of effect (remarks, words)” value in data set [3] is “strong”.
Turning to `OCCN1CCN(CCC=C2c3ccccc3Sc3ccc(C(F)(F)F)cc32)CC1` [flupentixol, reference compound], the ED50 in data set [1] (setting [5]) was 0.69 mg/kg; in data set [2] (setting [8]), 0.2 mg/kg; in data set [2] (setting [9]), over 20 mg/kg; in data set [4] it was 0.25 mg/kg. Further, the “Duration (remarks, words)” value in data set [3] is “short acting”. The “Strength of effect (remarks, words)” value in data set [3] is “strong”.
As to `O[C@H]1CCC[C@H](CN2CCC(=C3c4ccc(F)cc4Sc4ccc(C(F)(F)F)cc43)CC2)C1` (relative stereo) [Lu 15-030, 1-(trans-3-hydroxycyclohexylmethyl)-4-(2-trifluoromethyl-6-fluoro-9-thioxanthenylidene)-piperidine], the 50% effective dose (ED50) is 0.88 mg/kg in data set [1] (setting [5]), 0.28 mg/kg in data set [2] (setting [6]), 0.05 mg/kg in data set [2] (setting [7]) and 0.39 mg/kg in data set [4]. The “Duration (remarks, words)” value in data set [3] is on record as “long acting”. Besides, the “Strength of effect (remarks, words)” value in data set [3] is on record as “very strong”. Also, the “Cataleptic activity” value in data set [4] is reported as “have a cataleptic activity”.
Take `CN(C)CCCN1c2ccccc2Sc2ccc(Cl)cc21` [chlorpromazine, reference compound]: the ED50 in data set [1] (setting [5]) came out at 7.1 mg/kg; in data set [2] (setting [8]), 4 mg/kg; in data set [2] (setting [9]) it was 20 mg/kg; in data set [4] it was 5.6 mg/kg. The “Duration (remarks, words)” value in data set [3] is reported as “short acting”. Further, the “Strength of effect (remarks, words)” value in data set [3] is recorded as “moderatley strong”.
On to `Cc1ccc2c(c1)Sc1ccc(C(F)(F)F)cc1C2=C1CCN(C[C@H]2CC[C@H](O)CC2)CC1` [Lu 16-014, 1-(trans-4-hydroxycyclohexylmethyl)-4-(2-trifluoromethyl-6-methyl-9-thioxanthenylidene)-piperidine], for which the median effective dose (ED50) in data set [1] (setting [5]) amounted to 1 mg/kg; in data set [2] (setting [6]) it was 0.31 mg/kg; in data set [2] (setting [7]) it was 1.9 mg/kg; in data set [4], 0.97 mg/kg. For the same compound, the “Duration (remarks, words)” value in data set [3] is recorded as “long acting”. For the same compound, the “Strength of effect (remarks, words)” value in data set [3] is recorded as “moderately strong”.
For `O[C@H]1CC[C@H](CN2CCC(=C3c4ccccc4Sc4ccc(Cl)cc43)CC2)CC1` [Lu 14-047, 1-(trans-4-hydroxycyclohexylmethyl)-4-(2-chloro-9-thioxanthenylidene)-piperidine], the ED50 in data set [1] (setting [5]) was 0.32 mg/kg; in data set [2] (setting [6]) it was 0.59 mg/kg; in data set [2] (setting [7]), over 20 mg/kg; in data set [4] it was 3.5 mg/kg. Moreover, in data set [3], the “Duration (remarks, words)” value is on record as “short acting”. Besides, in data set [3], the “Strength of effect (remarks, words)” value is “strong”.
On to `CSc1ccc2c(c1)C(=C1CCN(C[C@H]3CC[C@H](O)CC3)CC1)c1ccc(F)cc1S2` [Lu 14-116, 1-(trans-4-hydroxycyclohexylmethyl)-4-(2-methylthio-6-fluoro-9-thioxanthenylidene)-piperidine], for which the ED50 was determined as 0.28 mg/kg in data set [1] (setting [5]), 0.44 mg/kg in data set [2] (setting [6]), 0.38 mg/kg in data set [2] (setting [7]) and 0.58 mg/kg in data set [4]. For the same compound, the “Duration (remarks, words)” value in data set [3] was “long acting”. The “Strength of effect (remarks, words)” value in data set [3] is reported as “strong”.
As for `CN1CCN(C2=Nc3cc(Cl)ccc3Nc3ccccc32)CC1` [clozapine, reference compound], the median effective dose (ED50) in data set [1] (setting [5]) was over 40 mg/kg; in data set [2] (setting [8]) it was over 160 mg/kg; in data set [4] it was 85 mg/kg. In addition, the “Duration (remarks, words)” value in data set [3] was “short acting”. In addition, the “Strength of effect (remarks, words)” value in data set [3] is given as “weak”.
With `CSc1ccc2c(c1)C(=C1CCN(C[C@H]3CC[C@H](O)CC3)CC1)c1ccc(F)cc1O2` [Lu 15-119, 1-(Trans-4-hydroxycyclohexylmethyl)-4-(2-methylthio-6-fluoro-9-xanthenylidene)piperidine], the ED50 in data set [1] (setting [5]) was found to be 0.56 mg/kg; in data set [2] (setting [6]) it was 0.09 mg/kg; in data set [2] (setting [7]) it was 0.11 mg/kg; in data set [4] it was 0.08 mg/kg. Also, in data set [3], the “Duration (remarks, words)” value is “long acting”. The “Strength of effect (remarks, words)” value in data set [3] is “very strong”. For the same compound, the “Cataleptic activity” value in data set [4] was “have a cataleptic activity”.
For the compound `OC1CC(O)(CN2CCC(=C3c4ccc(F)cc4Sc4ccc(C(F)(F)F)cc43)CC2)CC(O)C1O` (stereo not shown) [Lu 15-089], the median effective dose (ED50) in data set [1] (setting [5]) turned out to be 1.8 mg/kg; in data set [2] (setting [6]), 0.32 mg/kg; in data set [2] (setting [7]), 0.32 mg/kg; in data set [4], 2.7 mg/kg. Moreover, the “Duration (remarks, words)” value in data set [3] was “relatively short acting”.
For `CSc1ccc2c(c1)C(=C1CCN(C[C@H]3CC[C@H](O)CC3)CC1)c1ccccc1S2` [Lu 15-019, 1-(trans-4-hydroxycyclohexylmethyl)-4-(2-methylthio-9-thioxanthenylidene)-piperidine], the ED50 in data set [1] (setting [5]) is 0.59 mg/kg; in data set [2] (setting [6]) it was 0.77 mg/kg; in data set [2] (setting [7]), over 40 mg/kg; in data set [4], 0.6 mg/kg. Moreover, the “Duration (remarks, words)” value in data set [3] was “short acting”. Further, the “Strength of effect (remarks, words)” value in data set [3] is reported as “moderately strong”.
For `Cc1ccc2c(c1)C(=C1CCN(CCN3CCOC3=O)CC1)c1ccc(F)cc1S2` [Lu 14-070, 1-(2-(2-Oxazolidinon-3-yl)ethyl)-4-(2-methyl-6-fluoro-9-thioxanthenylidene)-piperidine], the 50% effective dose (ED50) in data set [1] (setting [5]) is 1.3 mg/kg; in data set [2] (setting [6]), 0.32 mg/kg; in data set [2] (setting [7]), over 40 mg/kg; in data set [4] it was 1.8 mg/kg. The “Duration (remarks, words)” value in data set [3] is recorded as “short acting”. Also, the “Strength of effect (remarks, words)” value in data set [3] is given as “moderately strong”.
Turning to `Fc1ccc2c(c1)Sc1ccc(C(F)(F)F)cc1C2=C1CCN(CC2CCOCO2)CC1` (stereo not shown) [Lu 14-130, 1-(1,3-Dioxan-4-ylmethyl)-4-(2-trifluoromethyl-6-fluoro-9-thioxanthenylidene)piperidine], the ED50 in data set [1] (setting [5]) was 0.62 mg/kg; in data set [2] (setting [6]) it was 0.77 mg/kg; in data set [2] (setting [7]) it was 0.7 mg/kg; in data set [4], 2.8 mg/kg. The “Duration (remarks, words)” value in data set [3] is on record as “long acting”. In data set [3], the “Strength of effect (remarks, words)” value is listed as “moderately strong”.
In the case of `O=C1OCCN1CCN1CCC(=C2c3ccccc3Sc3ccc(Cl)cc32)CC1` [Lu 14-106, 1-(2-(2-Oxazolidinone-3-yl)ethyl)-4-(2-chloro-9-thioxanthenylidene)piperidine], the ED50 in data set [1] (setting [5]) was 1 mg/kg; in data set [2] (setting [6]) it was 0.51 mg/kg; in data set [2] (setting [7]), over 40 mg/kg; in data set [4], 6.6 mg/kg. Moreover, the “Duration (remarks, words)” value in data set [3] was “short acting”. Besides, in data set [3], the “Strength of effect (remarks, words)” value is recorded as “strong”.
Take `O[C@@H]1CC[C@H](CN2CCC(=C3c4ccc(F)cc4Sc4ccc(C(F)(F)F)cc43)CC2)C[C@H]1O` (relative stereo) [Lu 15-052, 1-(3-trans-4-cis-dihydroxycyclohexylmethyl)-4-(2-trifluoromethyl-6-fluoro-9-thioxanthenylidene)-piperidine]: the median effective dose (ED50) was determined as 0.9 mg/kg in data set [1] (setting [5]), 0.32 mg/kg in data set [2] (setting [6]), 0.06 mg/kg in data set [2] (setting [7]) and 0.026 mg/kg in data set [4]. In addition, the “Duration (remarks, words)” value in data set [3] is reported as “long acting”. The “Strength of effect (remarks, words)” value in data set [3] is given as “strong; also recorded: very strong”. The “Cataleptic activity” value in data set [4] is “have a cataleptic activity”.
Turning to `N[C@H]1CC[C@H](CN2CCC(=C3c4ccc(F)cc4Sc4ccc(C(F)(F)F)cc43)CC2)CC1` [Lu 16-042], the ED50 in data set [1] (po, read-out: Amphetamine antagonism ED50, p.o.) worked out at 2.5 mg/kg; in data set [2] (setting [6]), 1.2 mg/kg; in data set [2] (setting [7]) it was 0.17 mg/kg; in data set [4], 3.3 mg/kg. In addition, in data set [3], the “Duration (remarks, words)” value is “long acting”. The “Strength of effect (remarks, words)” value in data set [3] is “strong”.
Take `O=C1NCCN1CCN1CCC(=C2c3ccc(F)cc3Sc3ccc(C(F)(F)F)cc32)CC1` [Lu 16-104]: the median effective dose (ED50) in data set [1] (setting [5]) came to 0.15 mg/kg; in data set [2] (setting [6]), 0.06 mg/kg; in data set [2] (setting [7]), 1.5 mg/kg; in data set [4] it was 0.11 mg/kg. Further, in data set [3], the “Duration (remarks, words)” value is reported as “relatively short acting”. Also, the “Strength of effect (remarks, words)” value in data set [3] is “strong”.

Usually ED50 stands for the dose that gives a 50% effect, or the effect in half of the subjects.

Source of the values: patent US4285956A, “Xanthene and thioxanthene derivatives, compositions thereof and treatment therewith” (priority 1978, dated 1981).
